Tested on: T1, NAGaseA
T1 construct: whole ORF, 844 residues (2535 bp), pET-28a(+) NdeI/XhoI, His6-tag kept, E. coli BL21(DE3), Ni-NTA purified, ~92 kDa (92,379 Da with His6-tag); cloning primers encode N-terminal MNKPAG and C-terminal SRVVAV
Assay: pNP release at […] nm, Lineweaver-Burk
Format: biochemical, Chitinibacter sp. GC72
Conditions: 50 mM PBS pH 6.5, 40°C, 10 min, 50-2,500 μM substrate

Km: 40 µM
SMILES: CC(=O)N[C@H]1[C@H](Oc2ccc([N+](=O)[O-])cc2)O[C@H](CO)[C@@H](O)[C@@H]1O [pNP-GlcNAc]

Reference: publication PMC9129912, “Characterization of a New Multifunctional GH20 β-N-Acetylglucosaminidase From Chitinibacter sp. GC72 and Its Application in Converting Chitin Into N-Acetyl Glucosamine” (Frontiers in Microbiology, 2022)
